According to the CombiSolv-Exp solvation set (Vermeire and Green 2021):

Test: solvent given as SMILES

FS(F)(F)(F)(F)F
Conditions	solvation free energy, 298 K [kcal/mol]
in Brc1ccccc1	0.67
in C1CCOC1	0.05
in C1COCCO1	0.52
in CC1COC(=O)O1	0.98
in CC#N	0.25
in CC(=O)N(C)C	0.76
in CC(C)(C)O	-0.11
in CC(C)=O	-0.07
in CC(C)CC(C)(C)C	-0.47
in CC(C)CO	0.1
in CCC(C)O	0.26
in CCCCCC	-0.41
in CCCCCCC	-0.32
in CCCCCCCC	-0.23
in CCCCCCCCC	-0.16
in CCCCCCCCCC	-0.06
in CCCCCCCCCCC	0
in CCCCCCCCCCCC	0.06
in CCCCCCCCCCCCC	0.12
in CCCCCCCCCCCCCC	0.15
in CCCCCCCCCCCCCCC	0.18
in CCCCCCCCCCCCCCCC	0.22
in CCCCCCCCCCCO	0.49
in CCCCCCCCCCO	0.47
in CCCCCCCCCO	0.43
in CCCCCCCCO	0.41
in CCCCCCCO	0.37
in CCCCCCO	0.34
in CCCCCO	0.29
in CCCCO	0.26
in CCCO	0.18
in CCO	0.14
in CN(C)C=O	0.83
in CN(C)P(=O)(N(C)C)N(C)C	0.66
in CNC=O	1.02
in CO	0.26
in CS(C)=O	-0.05
in Cc1ccc(C)cc1	0.19
in Cc1cccc(C)c1	0.19
in Cc1ccccc1C	0.27
in ClC(Cl)(Cl)Cl	-0.03
in Clc1ccccc1	0.35
in N#Cc1ccccc1	0.71
in O	3.04
in O=C1CCCC1	0.49
in O=C1CCCCC1	0.52

CC(C)Nc1nc(Cl)nc(NC(C)C)n1
Conditions	solvation free energy, 298 K [kcal/mol]
in O	-9.55

Cc1cccc(C(C)C)c1
Conditions	solvation free energy, 298 K [kcal/mol]
in O	-0.72

Clc1cc(-c2cc(Cl)c(Cl)c(Cl)c2Cl)cc(Cl)c1Cl
Conditions	solvation free energy, 298 K [kcal/mol]
in O	-3.17

CC(=O)N1CCCC1
Conditions	solvation free energy, 298 K [kcal/mol]
in O	-9.8

CCNc1nc(NC(C)CC)nc(OC)n1 (centres undefined)
Conditions	solvation free energy, 298 K [kcal/mol]
in O	-9.89

O=C(O)CCCCC(=O)O
Conditions	solvation free energy, 298 K [kcal/mol]
in CC(C)(C)O	-13.7
in CC(C)=O	-13.1
in CC(C)O	-13.5
in CCCCO	-13.2
in CCCO	-13.7
in CCO	-13.7
in CO	-14
in O	-12.9
in O=C1CCCCC1	-12.9

CCBr
Conditions	solvation free energy, 298 K [kcal/mol]
in Brc1cccc2ccccc12	-3.23
in C=CCCCCCCCCCCCCCC	-2.91
in CC(=O)N(C)C	-3.44
in CC(=O)OCc1ccccc1	-3.32
in CC(C)CC(C)(C)C	-2.95
in CCC(C)=O	-3.53
in CCCCCC	-3.14
in CCCCCCC	-3.04
in CCCCCCCC	-2.99
in CCCCCCCCO	-2.88
in CCCCCl	-3.51
in CCCCO	-3.03
in CCO	-3.03
in CCOC(C)=O	-3.53
in CN(C)C=O	-3.22
in Cc1ccc(C)cc1	-3.41
in ClC(Cl)(Cl)Cl	-3.45
in ClC(Cl)Cl	-3.77
in ClCCCl	-3.6
in Clc1ccccc1	-3.51
in N#Cc1ccccc1	-3.41
in O	-0.74
in O=C1CCCCC1	-3.55
in c1ccc2ncccc2c1	-3.31

CCNc1nc(NC(C)C(C)C)nc(SC)n1 (centres undefined)
Conditions	solvation free energy, 298 K [kcal/mol]
in O	-8.73

CC(C)=CC(C)(C)C
Conditions	solvation free energy, 298 K [kcal/mol]
in CCC(C)=O	-4.39
in O	1.84

C=CC(C)=CCC=C(C)CCC=C(C)C
Conditions	solvation free energy, 298 K [kcal/mol]
in O	-1.06

OC(CCl)CCl
Conditions	solvation free energy, 298 K [kcal/mol]
in CCCCOC(C)=O	-7.58
in Clc1ccccc1	-6.02

Cc1ccccc1C
Conditions	solvation free energy, 298 K [kcal/mol]
in CC#N	-5.37
in CC(C)CC(C)(C)C	-5.5
in CC(O)CO	-4.31
in CCCCCCC	-5.51
in CCCCCCCCCCCCCCCC	-5.38
in CCCCCCCCO	-5.3
in CCCCCO	-5.18
in CCCCOC(C)=O	-6.22
in CNC=O	-5.02
in COCCO	-5.25
in ClCCCl	-6.13
in NC=O	-3.55
in NCCO	-4.08
in O	-0.89
in O=CN1CCOCC1	-5.27
in O=Cc1ccco1	-5.37
in OCCO	-3.65
in OCCOCCO	-4.48
in OCCOCCOCCO	-4.61

CCOC(=O)c1ccc(N)cc1
Conditions	solvation free energy, 298 K [kcal/mol]
in CC(C)CCO	-11.1
in CCCC(C)O	-11.2

Cc1ccccc1
Conditions	solvation free energy, 298 K [kcal/mol]
in Brc1ccccc1	-5.15
in C1CCCCC1	-4.89
in C1CCOC1	-5.44
in C1COCCO1	-5.15
in C=CCCCCCCCCCCCCCC	-4.57
in CC1CCS(=O)(=O)C1	-4.64
in CC1COC(=O)O1	-4.43
in CC#N	-4.72
in CC(=O)N(C)C	-4.91
in CC(=O)O	-4.57
in CC(=O)c1ccccc1	-4.93
in CC(C)(C)O	-4.41
in CC(C)=O	-4.97
in CC(C)CC(C)(C)C	-4.66
in CC(C)CCCC(C)CCCC(C)CCCCC(C)CCCC(C)CCCC(C)C	-4.43
in CC(C)CCO	-4.47
in CC(C)CO	-4.37
in CC(C)O	-4.38
in CC(C)OC(C)C	-4.89
in CC(Cl)Cl	-5.32
in CC(O)CO	-3.58
in CCBr	-5.44
in CCC#N	-5.16
in CCC(C)=O	-5.07
in CCCC#N	-5.01
in CCCCC	-4.75
in CCCCC(CC)COC(=O)CCCCC(=O)OCC(CC)CCCC	-4.78
in CCCCC(CC)COC(=O)c1ccccc1C(=O)OCC(CC)CCCC	-4.55
in CCCCCC	-4.78
in CCCCCCC	-4.74
in CCCCCCCCCC	-4.66
in CCCCCCCCCCCCCCCC	-4.57
in CCCCCCCCO	-4.5
in CCCCCCO	-4.53
in CCCCCO	-4.49
in CCCCCl	-5.16
in CCCCN(C=O)CCCC	-4.91
in CCCCO	-4.52
in CCCCOC(=O)c1ccccc1C(=O)OCCCC	-4.82
in CCCCOC(C)=O	-5.5
in CCCCOCCCC	-4.88
in CCCO	-4.51
in CCN1CCCC1=O	-5.06
in CCN(CC)C(C)=O	-4.97
in CCN(CC)CC	-4.93
in CCNC(C)=O	-4.57
in CCNC=O	-4.49
in CCO	-4.46
in CCOC(=O)c1ccccc1C(=O)OCC	-4.68
in CCOC(C)=O	-5.04
in CCOCC	-5.12
in CCOCCOCCOCC	-4.96
in CCOc1ccccc1	-5.02
in CN1CCCC1=O	-4.95
in CN1CCCCC1=O	-5.02
in CN(C)C=O	-4.89
in CN(C)P(=O)(N(C)C)N(C)C	-5
in CNC(C)=O	-4.57
in CNC=O	-4.35
in CO	-4.35
in COCCO	-4.55
in COc1ccccc1	-5.04
in CS(C)=O	-4.53
in Cc1ccc(C)cc1	-5.08
in Cc1cccc(C)n1	-5.1
in Cc1cccc(O)c1	-4.63
in Cc1ccccn1	-5.12
in ClC(Cl)(Cl)Cl	-5.18
in ClC(Cl)Cl	-5.53
in ClCCCl	-5.3
in ClCCl	-5.5
in Clc1ccccc1	-5.2
in FC(F)(F)C(F)(F)C(F)(F)C(F)(F)C(F)(F)C(F)(F)F	-3.08
in Fc1c(F)c(F)c(F)c(F)c1F	-5.33
in Fc1ccccc1	-5.24
in ICI	-4.53
in Ic1ccccc1	-5.03
in NC=O	-3.02
in NCCO	-3.5
in Nc1ccccc1	-4.6
in O	-0.85
in O=C1CCCCC1	-5.13
in O=C1CCCO1	-4.72
in O=CN1CCOCC1	-4.48
in O=Cc1ccco1	-4.56
in OCCCCCO	-3.84
in OCCCCO	-3.79
in OCCCO	-3.52
in OCCO	-3.02
in OCCOCCOCCOCCO	-3.99
in OCCS	-4.12
in OCc1ccccc1	-4.53
in S=C=S	-5.33
in [2H]O[2H]	-0.99
in c1ccc2ncccc2c1	-4.82
in c1ccc(COCc2ccccc2)cc1	-4.79
in c1ccccc1	-5.32
in c1ccncc1	-5.11
